{
  "source": "patent US12564622B2",
  "about": "“Preventing cytokine release syndrome” (priority 2017, dated 2026)",
  "key": {"[1]": {"tested_on": "C. novyi-NT therapy-induced toxicity in mice bearing large subcutaneous CT26 tumors", "assay": "C. novyi-NT therapy of large subcutaneous CT26 tumors (therapy-induced toxicity)", "assay_type": "in vivo, mouse (BALB/c)", "conditions": "for mice surviving: CT26 tumor-bearing BALB/c mice, 12×10^6 spores intratumorally, ANP (osmotic pump 12 μg/day) or metyrosine (IP pre-treatment) given with parental C. novyi-NT", "method": "ANP concentrations in the supernatant of ANP-C. novyi-NT culture and in mouse plasma were measured by an Elisa kit from Ray Biotech (EIAR-ANP-1) that recognizes both human and mouse ANP. ANP in the supernatant of ANP-C. novyi-NT culture were shown biological activities as described elsewhere (Lofton et al., 1990 Biochem. Biophys. Res. Comm., 172:793-9). Briefly, bacterial supernatants were applied to cultured bovine aortic endothelial cells (BAOEC, Cell Applications Inc.) for 3 minutes. cGMP concentrations were then measured in BAOEC lysates by the Direct cGMP Elisa Kit from Enzo following the manufacture's instruction.\nThe colon cancer cell line CT26 was injected subcutaneously into the right flank of six to eight week old female Balb/C mice as described elsewhere (Qiao et al., 2011 Oncotarget, 2:59-68). Tumor sizes were measured with a caliper and calculated as ½*L*W*H as described elsewhere (Tomayko et al., 1989 Can. Chemother. Pharmacol., 24:148-54). When tumors reached 600-900 mm^3 after about two weeks, 12×10^6 spores of C. novyi-NT or ANP-C. novyi-NT at 3×10^6/μl were injected intratumorally into 4 central parts of the tumor with a 32 G Hamilton syringe needle. The bacteria typical germinated in the tumors within 24 hours, turning them necrotic. Hydration of the mice was supported by daily subcutaneous injections of […] saline. Human ANP (Sigma) was dissolved in saline, loaded in mini-osmotic pumps (ALZET) with a release rate of 12 μg/day and implanted subcutaneously in the back of mice 12 hours before the spore injection. Pumps loaded with saline served as controls. Metyrosine was dissolved in PBS and injected IP at 60 mg/kg/day for three days before the C. novyi injection to deplete catecholamines in storage. Two hours after the spore injection, 60 mg/kg of metyrosine was injected intraperitoneally (IP). For each of the next three days, IP injections of metyrosine at 30 mg/kg were administered. Control groups were injected with PBS at the same time points.\nBlood samples were collected into tubes containing 5 mM EDTA and 4 mM sodium metabisulfite after puncturing the facial vein or (terminally) by cardiac puncture. Subsequently, the samples were centrifuged and the plasmas were stored at −80° C. prior to analysis. Catecholamines (dopamine, norepinephrine and epinephrine) were measured using the 3-CAT Research ELISA kit from Labor Diagnostika Nord GmbH/Rocky Mountain Diagnostics. Cytokines were measured using Luminex assays based on Millipore Mouse and Human Cytokine/Chemokine panels.\nANP concentrations in the supernatant of ANP-C. novyi-642 NT culture and in mouse plasma were measured with an Elisa kit from Ray Biotech (EIAR-ANP-1) that recognizes both human and mouse ANP. […] Briefly, bacterial supernatants were applied to cultured bovine aortic endothelial cells (BAOEC, Cell Applications Inc.) for 3 minutes. cGMP concentrations were then measured in BAOEC lysates by the Direct cGMP Elisa Kit from Enzo following the manufacture's instruction.\nThe colon cancer cell line CT26 was injected subcutaneously into the right flank of six to eight weeks old female Balb/C mice as described elsewhere (see, e.g., Qiao et al. 2011 Oncotarget 2:59-68). Tumor sizes were measured with a caliper and calculated as ½*L*W*H as described elsewhere (see, e.g., Tomayko et al. 1989 Cancer Chemother Pharmacol 24:148-154). When tumors reached 600-900 mm^3 after about two weeks, 12×10^6 spores of C. novyi-NT or ANP-C. novyi-NT at 3×10^6/μl were injected intratumorally into 4 central parts of the tumor with a 32 G Hamilton syringe needle. The bacteria typical germinated in the tumors within 24 hours, turning them necrotic. Hydration of the mice was supported by daily subcutaneous injections of 500 μl saline. Human ANP (Sigma) was dissolved in saline, loaded in mini-osmotic pumps (ALZET) with a release rate of 12 μg/day and implanted subcutaneously in the back of mice 12 hours before the spore injection. Pumps loaded with saline served as controls. […]"}, "[2]": {"tested_on": "mouse peritoneal macrophages", "assay": "Peritoneal macrophage catecholamine and cytokine production", "assay_type": "cell-based", "conditions": "for cytokine release: ANP 5 μg/ml or metyrosine 2 mM", "description": "Isolation of elicited macrophages from mouse peritoneum followed previously described procedures with minor modifications (Zhang et al., “The isolation and characterization of murine macrophages,” Curr Protoc Immunol Chapter 14, Unit 14.1 (November, 2008)). Four days prior to the harvest, 1 ml of 3% Brewer's thioglycollate medium (BD) was injected IP in female 2-3 months old BALB/c mice. Mice were euthanized by cervical dislocation and the skin of the belly was cut open without penetrating the muscle layer. Using a syringe with a 22 G needle, 5 ml of cold PBS containing 5 mM EDTA was injected carefully into the peritoneal cavity. After massaging gently for 1-2 minutes, a 1-ml syringe without needle was used to extract the peritoneal contents containing residential macrophages. Cells were centrifuged at 400 g for 10 minutes at 4° C., resuspended in DMEM/F12 medium supplemented with 1% FBS and antibiotics and distributed in 48-well plates at a concentration of 0.5×10^6 cells/well. After incubation at 37° C. for 2 hours, cells were rinsed three times with 0.5 ml media and then 250 μl of media was added to each well. […] For stimulation, the cells were incubated for 24 hours with LPS at 50 μg/ml. […] To stimulate macrophages, they were exposed to epinephrine at 15 ng/ml for 24 hours at 37° C. After the incubation, supernatants were collected from the wells and mixed with 5 mM EDTA and 4 mM sodium metabisulfite for preservation of catecholamines and stored at −80° C. […] Thus, any epinephrine identified in the media must have been secreted by cells in the last 24 hours prior to harvesting the media.\nIsolation of elicited macrophages from mouse peritoneum followed previously described procedures with minor modifications66. Four days prior to the harvest, 1 ml of 3% Brewer's thioglycollate medium (BD) was injected IP in female 2-3 months old BALB/c mice or 4-6 weeks old conditional TH knockout mice. Mice were euthanized by cervical dislocation and the skin of the belly was cut open without penetrating the muscle layer. Using a syringe with a 25 G needle, 5 ml of cold PBS containing 5 mM EDTA was injected carefully into the peritoneal cavity. After massaging gently for 1-2 minutes, a 1-ml syringe without needle was used to extract the peritoneal contents containing residential macrophages. Cells were centrifuged at 400 g for 10 minutes at 4° C., resuspended in DMEM/F12 medium supplemented with 1% FBS and antibiotics and distributed in 48-well plates at a concentration of 0.5×10^6 cells/well. After incubation at 37° C. for 2 hours, cells were rinsed three times with 0.5 ml media and then 250 μl of media was added to each well. […] For stimulation, the cells were incubated for 24 hours with LPS at 50 μg/ml. […] To stimulate macrophages, they were exposed to epinephrine at 15 ng/ml for 24 hours at 37° C. After the incubation, supernatants were collected from the wells and mixed with 5 mM EDTA and 4 mM sodium metabisulfite for preservation of catecholamines and stored at −80° C. […] Thus, any epinephrine identified in the media must have been secreted by cells in the last 24 hours prior to harvesting the media."}, "[3]": {"tested_on": "Eμ-ALL bearing C57BL/6 mice treated with mCART19", "assay": "mCART19 treatment of syngeneic Eμ-ALL B-ALL model", "assay_type": "in vivo, mouse (C57BL/6)", "conditions": "for catecholamine and cytokine release: 24 and 72 hours after mCART19; for therapeutic (antitumor) efficacy versus mCART19 alone: prophylaxis with ANP pump or metyrosine IP", "method": "The Eμ-ALL cell line was derived from a lymphoid malignancy in an Eμ-myc transgenic mouse and upon IV injection, can develop B-ALL in C57BL/6 mice. The Eμ-ALL cells were co-cultured with feeder NIH-3T3 cells that were irradiated at 60 Gy, in RPMI 1640 media supplemented with 10% FBS, 0.05 mM 2-Mercaptoethanol and antibiotics. Eμ-ALL cells were transfected with luciferase via lentivirus. 2×10^6 Eμ-ALL cells were IV injected in female 6-8 week-old C57BL/6 mice via tail vein and after 6 days, mice were IP injected with cyclophosphamide (CPA) at 100 mg/kg for pre-conditioning as described elsewhere (see, e.g., Davila et al., 2013 PLoS One 8:e61338). One day after CPA treatment, 10×10^6 mCART19 cells were IV injected in the mice. Metyrosine was injected IP at 40 mg/kg/day for three days before the mCART19 injection. On the day of mCART19 injection, a fourth dose of 40 mg/kg was given IP and the mice were subsequently injected four more times at daily intervals at 30 mg/kg. One day before mCART19 injection, mini-osmotic pumps (ALZET) loaded with hANP with a release rate of 12 μg/day were implanted subcutaneously in the back of mice. Tumor load was monitored by Xenogen before and after mCART19 injection."}, "[4]": {"conditions": "plasma, 36 hours after spore injection, versus parental C. novyi-NT alone"}, "[5]": {"conditions": "LPS 50 μg/ml, 24 hours, pre-incubation 10 minutes with ANP 5 μg/ml or metyrosine 2 mM"}, "[6]": {"conditions": "LPS, epinephrine or the combination of both, metyrosine 2 mM"}},
  "note": "“And” between values parts separate entries of the source, which are not always exact repeats. Identical values can stand only once. “Also recorded” adds a separate entry of the source.",
  "data": [
    {"smiles": "CC[C@H](C)[C@@H]1NC(=O)[C@H](CCCNC(=N)N)NC(=O)[C@H](CC(=O)O)NC(=O)[C@H](CCSC)NC(=O)[C@H](CCCNC(=N)N)NC(=O)CNC(=O)CNC(=O)[C@H](Cc2ccccc2)NC(=O)[C@@H](NC(=O)[C@H](CO)NC(=O)[C@H](CO)NC(=O)[C@H](CCCNC(=N)N)NC(=O)[C@H](CCCNC(=N)N)NC(=O)[C@H](CC(C)C)NC(=O)[C@@H](N)CO)CSSC[C@@H](C(=O)N[C@@H](CC(N)=O)C(=O)N[C@@H](CO)C(=O)N[C@@H](Cc2ccccc2)C(=O)N[C@@H](CCCNC(=N)N)C(=O)N[C@@H](Cc2ccc(O)cc2)C(=O)O)NC(=O)CNC(=O)[C@H](CC(C)C)NC(=O)CNC(=O)[C@H](CO)NC(=O)[C@H](CCC(N)=O)NC(=O)[C@H](C)NC(=O)CNC1=O", "note": "[ANP, atrial natriuretic peptide]", "values": [
      {"measurement": "mice surviving", "setting": "[1]", "result": "~75% and ~73%"},
      {"measurement": "robust but not curative response, of surviving mice", "setting": "[1]; CT26 tumors, surviving mice", "result": "20% and 23%"},
      {"measurement": "tissue damage and leukocyte/myeloid cell infiltration in lungs, liver, spleen", "setting": "[1]; histology, versus parental C. novyi-NT", "result": "major reductions"},
      {"measurement": "circulating catecholamines", "setting": "[1]; [4]", "result": "major reductions"},
      {"measurement": "cytokine release", "setting": "[2]; LPS 50 μg/ml, 24 hours", "result": "reduction in the cytokine levels"},
      {"measurement": "catecholamine production", "setting": "[2]; [5]", "result": "reduce the production of all three major catecholamines; also recorded: suppress the increased production; also recorded: effectively blocked"},
      {"measurement": "catecholamine production", "setting": "[2]; epinephrine 15 ng/ml stimulated, ANP pre-treatment", "result": "inhibited this production"},
      {"measurement": "catecholamine and cytokine (IL-6, TNF-α, MIP-2, KC) production", "setting": "[2]; epinephrine alone 15 ng/ml", "result": "also suppressed"},
      {"measurement": "amplified inflammatory response", "setting": "[2]; epinephrine in combination with LPS", "result": "inhibited"},
      {"measurement": "catecholamine and cytokine release", "setting": "[3]", "result": "reduced"},
      {"measurement": "therapeutic (antitumor) efficacy versus mCART19 alone", "setting": "[3]", "result": "matched the therapeutic efficacy"}
    ]},
    {"smiles": "C[C@](N)(Cc1ccc(O)cc1)C(=O)O", "note": "[metyrosine, α-methyl-tyrosine]", "values": [
      {"measurement": "mice surviving", "setting": "[1]", "result": 85, "unit": "%"},
      {"measurement": "circulating catecholamines", "setting": "[1]; [4]", "result": "substantially reduced"},
      {"measurement": "circulating inflammatory cytokines and chemokines", "setting": "[1]; [4]", "result": "substantially reduced"},
      {"measurement": "cytokine release", "setting": "[2]; LPS 50 μg/ml, 24 hours", "result": "similarly inhibited"},
      {"measurement": "catecholamine production", "setting": "[2]; [5]", "result": "greatly reduced; also recorded: effectively blocked"},
      {"measurement": "catecholamines produced", "setting": "[2]; [6]", "result": "greatly reduced"},
      {"measurement": "cytokines released", "setting": "[2]; [6]", "result": "diminished"},
      {"measurement": "catecholamine and cytokine release", "setting": "[3]", "result": "reduced"},
      {"measurement": "therapeutic (antitumor) efficacy versus mCART19 alone", "setting": "[3]", "result": "matched the therapeutic efficacy"}
    ]}
  ]
}
